From patent US11759455B2, “Substituted 1H-imidazo[4,5-b]pyridin-2(3H)-ones and their use as GLUN2B receptor modulators” (JANSSEN PHARMACEUTICA NV, priority 2016, dated 2023) come the findings set out here.

Structures are written as SMILES. Where two headings read alike, the source gives them in different places. Bounds are passed on as bounds.

The target of the assay is T1, human GluN1/GluN2B NMDA receptors (Homo sapiens, UniProt Q13224).
T1 construct: expressed in transfected cells
As to the kind of experiment: Cell-based calcium flux (FLIPR) assay on cloned human NR1/NR2B ion channels expressed in mammalian cells (standard and HTS buffer variants).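 Note: stable Tet-On inducible cell line, Ca2+ influx triggered by glutamate at about EC40 plus 10 µM glycine, fluorescent dye read-out over 5 min, normalized to control wells.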

Where [1] appears, read: standard assay buffer (0.5 mM MgCl2 in dye loading buffer; 137 mM NaCl, 4 mM KCl in assay buffer), human GluN1/GluN2B, read-out: NR2B IC50 (μM) standard assay.
The mark [2] stands for this setting: standard assay buffer (0.5 mM MgCl2 dye loading; 137 mM NaCl, 4 mM KCl assay buffer), human GluN1/GluN2B cells, read-out: NR2B IC50 (μM) standard assay.
The mark [3] stands for this setting: HTS assay buffer (1.5 mM MgCl2 in dye loading buffer; 150 mM NaCl, 3 mM KCl in assay buffer), human GluN1/GluN2B, read-out: NR2B IC50 (μM) HTS assay.

T1 sequence (Q13224 27-1484, other chains not shown): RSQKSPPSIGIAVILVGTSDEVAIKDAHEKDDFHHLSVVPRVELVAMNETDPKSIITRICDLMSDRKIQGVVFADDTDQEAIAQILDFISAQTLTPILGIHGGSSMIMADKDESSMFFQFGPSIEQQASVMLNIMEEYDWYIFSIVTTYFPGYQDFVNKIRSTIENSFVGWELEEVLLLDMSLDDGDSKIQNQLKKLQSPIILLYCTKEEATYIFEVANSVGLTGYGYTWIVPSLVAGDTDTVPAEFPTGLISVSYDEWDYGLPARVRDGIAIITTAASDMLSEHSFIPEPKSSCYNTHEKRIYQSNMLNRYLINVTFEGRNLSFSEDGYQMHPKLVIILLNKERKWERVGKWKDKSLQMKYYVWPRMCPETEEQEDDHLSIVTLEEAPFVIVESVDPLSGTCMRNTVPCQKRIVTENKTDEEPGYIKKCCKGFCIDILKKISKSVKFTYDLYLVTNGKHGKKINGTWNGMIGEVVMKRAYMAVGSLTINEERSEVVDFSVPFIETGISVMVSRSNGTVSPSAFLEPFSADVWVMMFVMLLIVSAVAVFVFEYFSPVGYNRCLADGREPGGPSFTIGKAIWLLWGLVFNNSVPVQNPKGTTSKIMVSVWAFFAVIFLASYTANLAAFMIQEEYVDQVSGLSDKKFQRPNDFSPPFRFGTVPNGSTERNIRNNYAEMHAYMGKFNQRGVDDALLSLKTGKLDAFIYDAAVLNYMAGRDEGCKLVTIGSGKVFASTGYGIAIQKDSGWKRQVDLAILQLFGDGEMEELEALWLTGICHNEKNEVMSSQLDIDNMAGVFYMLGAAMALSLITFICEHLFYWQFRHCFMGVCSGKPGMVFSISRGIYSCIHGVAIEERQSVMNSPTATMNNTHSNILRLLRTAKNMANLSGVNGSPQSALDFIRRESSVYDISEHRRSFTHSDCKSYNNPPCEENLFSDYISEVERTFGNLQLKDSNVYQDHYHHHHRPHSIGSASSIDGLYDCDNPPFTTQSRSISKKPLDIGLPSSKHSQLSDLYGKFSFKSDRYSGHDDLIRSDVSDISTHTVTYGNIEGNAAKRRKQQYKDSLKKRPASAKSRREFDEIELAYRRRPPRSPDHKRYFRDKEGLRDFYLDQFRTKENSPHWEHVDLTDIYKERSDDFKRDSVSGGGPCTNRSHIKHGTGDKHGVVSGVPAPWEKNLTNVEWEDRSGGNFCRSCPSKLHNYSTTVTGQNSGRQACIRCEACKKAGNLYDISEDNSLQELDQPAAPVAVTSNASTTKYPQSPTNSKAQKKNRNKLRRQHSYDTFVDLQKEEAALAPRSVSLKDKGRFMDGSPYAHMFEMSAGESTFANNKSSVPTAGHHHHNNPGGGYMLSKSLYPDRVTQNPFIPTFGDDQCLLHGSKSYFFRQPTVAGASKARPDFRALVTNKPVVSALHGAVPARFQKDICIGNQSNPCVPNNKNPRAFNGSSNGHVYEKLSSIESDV

In general, IC50 refers to the concentration needed to halve the response being measured. In the case of `Cc1cc(Cn2c(=O)n(C)c3ncc(-c4ccc(C(F)(F)F)s4)cc32)no1` [Example 570, 3-Methyl-1-[(5-methylisoxazol-3-yl)methyl]-6-[5-(trifluoromethyl)-2-thienyl]imidazo[4,5-b]pyridin-2-one], the IC50 under setting [1] is 0.139 µM.

As for `Cn1c(=O)n(Cc2cncc(F)c2)c2cc(-c3cccc(Cl)c3)cnc21` [Example 348, 6-(3-Chlorophenyl)-1-[(5-fluoro-3-pyridyl)methyl]-3-methyl-imidazo[4,5-b]pyridin-2-one], the IC50 under setting [1] is 0.213 µM.

On to `O=c1[nH]c2ncc(-c3cccc(C(F)(F)F)c3)cc2n1Cc1cccc(Cl)c1` [Example 21, 1-[(3-Chlorophenyl)methyl]-6-[3-(trifluoromethyl)phenyl]-3H-imidazo[4,5-b]pyridin-2-one], for which the IC50 under setting [2] stood at 1.34 µM.

With `Cc1cc(C)cc(-c2cnc3[nH]c(=O)n(Cc4cccc(F)c4)c3c2)c1` [Example 495, 6-(3,5-Dimethylphenyl)-1-[(3-fluorophenyl)methyl]-3H-imidazo[4,5-b]pyridin-2-one], the IC50 under setting [3] is 2.81 µM.

In the case of `CCc1ccc(-c2cnc3c(c2)n(CC(=O)N2CCC2)c(=O)n3C)s1` [Example 87, 1-[2-(Azetidin-1-yl)-2-oxo-ethyl]-6-(5-ethyl-2-thienyl)-3-methyl-imidazo[4,5-b]pyridin-2-one], the IC50 under setting [2] was 0.021 µM.

`Cc1cccnc1Cn1c(=O)[nH]c2ncc(-c3ccc(F)c(F)c3)cc21` [Example 284, 6-(3,4-Difluorophenyl)-1-[(3-methyl-2-pyridyl)methyl]-3H-imidazo[4,5-b]pyridin-2-one]: the IC50 under setting [2] is greater than 10 µM.

As for `Cc1cc(-c2cnc3c(c2)n(CC(=O)N2CC(F)(F)C2)c(=O)n3C)ccc1F` [Example 413, 1-(2-(3,3-Difluoroazetidin-1-yl)-2-oxoethyl)-6-(4-fluoro-3-methylphenyl)-3-methyl-1H-imidazo[4,5-b]pyridin-2(3H)-one], the IC50 under setting [1] was determined as 0.009 µM.

As for `Cc1cncc(Cn2c(=O)[nH]c3ncc(-c4ccc(F)c(C)c4)cc32)c1` [Example 269, 6-(4-Fluoro-3-methyl-phenyl)-1-[(5-methyl-3-pyridyl)methyl]-3H-imidazo[4,5-b]pyridin-2-one], the IC50 under setting [2] stood at 0.128 µM.

Take `Cc1cc(-c2cnc3c(c2)n(Cc2ccncc2)c(=O)n3C)ccc1F` [Example 46, 6-(4-Fluoro-3-methyl-phenyl)-3-methyl-1-(4-pyridylmethyl)imidazo[4,5-b]pyridin-2-one]: under setting [2], the IC50 turned out to be 0.6 µM.

As to `Cn1c(=O)n(CC(=O)N2CCCC2)c2cc(-c3ccc(C(F)(F)F)s3)cnc21` [Example 328, 3-Methyl-1-(2-oxo-2-pyrrolidin-1-yl-ethyl)-6-[5-(trifluoromethyl)-2-thienyl]imidazo[4,5-b]pyridin-2-one], the IC50 under setting [1] turned out to be 0.079 µM.

Regarding `COc1ccc(-c2cnc3[nH]c(=O)n(Cc4cc(C)on4)c3c2)cc1F` [Example 519, 6-(3-Fluoro-4-methoxy-phenyl)-1-[(5-methylisoxazol-3-yl)methyl]-3H-imidazo[4,5-b]pyridin-2-one], the IC50 under setting [1] came out at 0.139 µM.

As to `CCOc1ccccc1-c1cnc2[nH]c(=O)n(Cc3cc(C)on3)c2c1` [Example 517, 6-(2-Ethoxyphenyl)-1-[(5-methylisoxazol-3-yl)methyl]-3H-imidazo[4,5-b]pyridin-2-one], the IC50 under setting [1] is 0.709 µM.

As to `CN(C)C(=O)Cn1c(=O)n(CF)c2ncc(-c3ccc(C(F)(F)F)s3)cc21` [Example 596, 2-[3-(Fluoromethyl)-2-oxo-6-[5-(trifluoromethyl)-2-thienyl]imidazo[4,5-b]pyridin-1-yl]-N,N-dimethyl-acetamide], the IC50 under setting [1] was 0.066 µM.

As to `Cc1noc(Cn2c(=O)n(C)c3ncc(-c4ccc(C(F)(F)F)s4)cc32)n1` [Example 569, 3-Methyl-1-[(3-methyl-1,2,4-oxadiazol-5-yl)methyl]-6-[5-(trifluoromethyl)-2-thienyl]imidazo[4,5-b]pyridin-2-one], under setting [1], the IC50 was found to be 0.412 µM.

`Cc1c(F)ccc(-c2cnc3c(c2)n(Cc2cccnc2)c(=O)n3C)c1F` [Example 339, 6-(2,4-Difluoro-3-methyl-phenyl)-3-methyl-1-(3-pyridylmethyl)imidazo[4,5-b]pyridin-2-one]: the IC50 under setting [1] was determined as 0.034 µM.

In the case of `O=C(Cn1c(=O)[nH]c2ncc(-c3cc(F)cc(F)c3)cc21)NC1CC1` [Example 447, N-Cyclopropyl-2-[6-(3,5-difluorophenyl)-2-oxo-3H-imidazo[4,5-b]pyridin-1-yl]acetamide], the IC50 under setting [1] worked out at 0.184 µM.

Regarding `Cc1cc(-c2cnc3c(c2)n(Cc2cccnc2)c(=O)n3C)ccc1F` [Example 45, 6-(4-Fluoro-3-methyl-phenyl)-3-methyl-1-(3-pyridylmethyl)imidazo[4,5-b]pyridin-2-one], under setting [2], the IC50 turned out to be 0.038 µM.

`O=C(Cn1c(=O)[nH]c2ncc(-c3ccc(Cl)cc3)cc21)c1cccs1` [Example 459, 6-(4-Chlorophenyl)-1-[2-oxo-2-(2-thienyl)ethyl]-3H-imidazo[4,5-b]pyridin-2-one]: the IC50 under setting [3] is 1.42 µM.

Consider `Cn1c(=O)n(CC(=O)N2CCC2)c2cc(-c3cccc(C(F)(F)F)c3)cnc21` [Example 408, 1-[2-(Azetidin-1-yl)-2-oxo-ethyl]-3-methyl-6-[3-(trifluoromethyl)phenyl]imidazo[4,5-b]pyridin-2-one], for which the IC50 under setting [1] stood at 0.042 µM.

Regarding `Cc1cccc(-c2cnc3c(c2)n(Cc2cncc(Cl)c2)c(=O)n3C)c1` [Example 374, 1-[(5-Chloro-3-pyridyl)methyl]-3-methyl-6-(m-tolyl)imidazo[4,5-b]pyridin-2-one], under setting [1], the IC50 is 0.416 µM.

For the compound `COc1cccnc1Cn1c(=O)[nH]c2ncc(-c3cccc(C(F)(F)F)c3)cc21` [Example 233, 1-[(3-Methoxy-2-pyridyl)methyl]-6-[3-(trifluoromethyl)phenyl]-3H-imidazo[4,5-b]pyridin-2-one], under setting [2], the IC50 came out at 2.83 µM.

With `Cc1cc(F)ccc1-c1cnc2[nH]c(=O)n(CC(=O)N3CCC3)c2c1` [Example 320, 1-[2-(Azetidin-1-yl)-2-oxo-ethyl]-6-(4-fluoro-2-methyl-phenyl)-3H-imidazo[4,5-b]pyridin-2-one], the IC50 under setting [1] stood at 0.075 µM.

Consider `Cc1cccc(-c2cnc3c(c2)n(Cc2cncc(F)c2)c(=O)n3C)c1` [Example 350, 1-[(5-Fluoro-3-pyridyl)methyl]-3-methyl-6-(m-tolyl)imidazo[4,5-b]pyridin-2-one], for which the IC50 under setting [1] was determined as 0.029 µM.

For the compound `Cn1c(=O)n(CC(=O)N2CC(F)C2)c2cc(-c3cccc(C(F)(F)F)c3)cnc21` [Example 34, 1-[2-(3-Fluoroazetidin-1-yl)-2-oxo-ethyl]-3-methyl-6-[3-(trifluoromethyl)phenyl]imidazo[4,5-b]pyridin-2-one], the IC50 under setting [2] was determined as 0.065 µM.

As to `Cn1c(=O)n(CC(=O)NC2(C)CC(F)(F)C2)c2cc(-c3cccc(C(F)(F)F)c3)cnc21` [Example 198, N-(3,3-Difluoro-1-methyl-cyclobutyl)-2-[3-methyl-2-oxo-6-[3-(trifluoromethyl)phenyl]imidazo[4,5-b]pyridin-1-yl]acetamide], under setting [2], the IC50 worked out at 5.01 µM.

In the case of `Cn1c(=O)n(Cc2cccnn2)c2cc(-c3cccc(F)c3)cnc21` [Example 57, 6-(3-Fluorophenyl)-3-methyl-1-(pyridazin-3-ylmethyl)imidazo[4,5-b]pyridin-2-one], the IC50 under setting [2] turned out to be 0.2 µM.

As to `NC(=O)Cn1c(=O)[nH]c2ncc(-c3cccc(C(F)(F)F)c3)cc21` [Example 432, 2-[2-Oxo-6-[3-(trifluoromethyl)phenyl]-3H-imidazo[4,5-b]pyridin-1-yl]acetamide], under setting [1], the IC50 amounted to 0.962 µM.

Regarding `O=c1[nH]c2ncc(-c3cccc(Cl)c3)cc2n1CCN1CCC1` [Example 158, 1-[2-(Azetidin-1-yl)ethyl]-6-(3-chlorophenyl)-3H-imidazo[4,5-b]pyridin-2-one], the IC50 under setting [2] came to 0.201 µM.

As for `CN(C)c1cccc(-c2cnc3[nH]c(=O)n(CC4CC4)c3c2)c1` [Example 473, 1-(Cyclopropylmethyl)-6-[3-(dimethylamino)phenyl]-3H-imidazo[4,5-b]pyridin-2-one], under setting [3], the IC50 came to 15.7 µM.

In the case of `COc1cccc(F)c1-c1cnc2[nH]c(=O)n(CC(=O)NC3CC3)c2c1` [Example 455, N-Cyclopropyl-2-[6-(2-fluoro-6-methoxy-phenyl)-2-oxo-3H-imidazo[4,5-b]pyridin-1-yl]acetamide], the IC50 under setting [1] worked out at 0.416 µM.

Regarding `Cn1c(=O)n(CC(=O)N2CCC2)c2cc(-c3cc(C(F)F)cs3)cnc21` [Example 117, 1-[2-(Azetidin-1-yl)-2-oxo-ethyl]-6-[4-(difluoromethyl)-2-thienyl]-3-methyl-imidazo[4,5-b]pyridin-2-one], the IC50 under setting [2] was determined as 0.038 µM.

With `O=C(Cn1c(=O)[nH]c2ncc(-c3ccc(C(F)(F)F)s3)cc21)N1CC(F)C1` [Example 578, 1-[2-(3-Fluoroazetidin-1-yl)-2-oxo-ethyl]-6-[5-(trifluoromethyl)-2-thienyl]-3H-imidazo[4,5-b]pyridin-2-one], the IC50 under setting [1] is 0.014 µM.

For `CCOC(=O)Cn1c(=O)[nH]c2ncc(-c3cccc(C(F)(F)F)c3)cc21` [Example 134, Ethyl 2-[2-oxo-6-[3-(trifluoromethyl)phenyl]-3H-imidazo[4,5-b]pyridin-1-yl]acetate], the IC50 under setting [2] was determined as 0.035 µM.

As for `Cc1cc(Cn2c(=O)n(C)c3ncc(-c4ccc(F)c(C)c4F)cc32)no1` [Example 571, 6-(2,4-Difluoro-3-methyl-phenyl)-3-methyl-1-[(5-methylisoxazol-3-yl)methyl]imidazo[4,5-b]pyridin-2-one], the IC50 under setting [1] turned out to be 0.037 µM.

Regarding `Cn1c(=O)n(Cc2cccnn2)c2cc(-c3ccc(F)c(Cl)c3)cnc21` [Example 380, 6-(3-Chloro-4-fluoro-phenyl)-3-methyl-1-(pyridazin-3-ylmethyl)imidazo[4,5-b]pyridin-2-one], the IC50 under setting [1] stood at 0.016 µM.
